The source made the active and inactive calls. No cut-off for these calls is given here.
Experiments:
[1] = Antiproliferative activity against human MCF-10A cells assessed as inhibition of cell proliferation incubated for 48 hrs by MTT assay; assay type: toxicity, cell-based
[2] = Selectivity ratio of IC50 for antiproliferative activity against human MCF-10A cells assessed as inhibition of cell proliferation incubated for 48 hrs by MTT assay to IC50 for antiproliferative activity against human BT-549 cells assessed as inhibition of cell proliferation incubated for 48 hrs by MTT assay; assay type: toxicity, cell-based; conditions: MCF-10A cells versus BT-549 cells, read-out: Ratio IC50
MDA-MB-231 [3] = test: Inhibition of DNA replication in human MDA-MB-231 cells assessed as reduction in EDU fluorescence intensity by EDU staining based fluorescence microscopic analysis; assay type: functional, cell-based; conditions: dose 0.5-2 µM
BT-549 [4] = test: Inhibition of cell proliferation in human BT-549 cells assessed as reduction in Ki-67 expression at 0.5 to 2 uM incubated for 24 hrs by DAPI staining based immunofluorescence analysis; assay type: functional; conditions: dose 0.5-2 µM
MDA-MB-231 [5] = test: Inhibition of cell migration in human MDA-MB-231 cells assessed as decrease in SNAIL level at 1 uM incubated for 24 hrs by DAPI staining based immunofluorescence analysis; assay type: functional
BT-549 [6] = test: Inhibition of cell migration in human BT-549 cells assessed as decrease in MMP-2 level incubated for 24 hrs by Western blot analysis; assay type: functional, cell-based; conditions: dose 0.5-2 µM
BT-549 [7] = test: Inhibition of glycolysis in human BT-549 cells assessed as reduction in lactate production at 0.5 to 2 uM; assay type: functional, cell-based; conditions: dose 0.5-2 µM
BT-549 [8] = test: Inhibition of glycolysis in human BT-549 cells assessed as decrease in GLUT4 protein level at 0.5 to 2 uM incubated for 24 hrs by Western blot analysis; assay type: functional, cell-based; conditions: dose 0.5-2 µM
BT-549 [9] = test: Induction of ER stress in human BT-549 cells assessed as increase in calcium ion content at 2 uM incubated for 24 hrs by Fluo-3AM staining based flow cytometric analysis; assay type: functional, cell-based
BT-549 [10] = test: Induction of ER stress in human BT-549 cells assessed as activation of CHOP protein level incubated for 24 hrs by Western blot analysis; assay type: functional, cell-based; conditions: dose 0.5-2 µM
MDA-MB-231 [11] = test: Induction of ER stress in human MDA-MB-231 cells assessed as increase in calcium ion content at 2 uM incubated for 24 hrs by Fluo-3AM staining based flow cytometric analysis; assay type: functional, cell-based
BT-549 [12] = test: Induction of apoptosis in human BT-549 cells assessed as necrotic cells at 1 uM incubated for 24 hrs by Annexin V-PI staining based flow cytometric analysis (reference value: 3.32%); assay type: functional
BT-549 [13] = test: Induction of apoptosis in human BT-549 cells assessed as late apoptotic cells at 2 uM incubated for 24 hrs by Annexin V-PI staining based flow cytometric analysis (reference value: 2.95%); assay type: functional
MDA-MB-231 [14] = test: Induction of apoptosis in human MDA-MB-231 cells assessed as viable cells at 0.5 uM incubated for 24 hrs by Annexin V-PI staining based flow cytometric analysis (reference value: 96.5%); assay type: functional; conditions: read-out: Activity
MDA-MB-231 [15] = test: Induction of apoptosis in human MDA-MB-231 cells assessed as upregulation of cleavage of caspase-3 expression at 0.5 to 2 uM incubated for 24 hrs by Western blot analysis; assay type: functional, cell-based; conditions: dose 0.5-2 µM
MDA-MB-231 [16] = test: Induction of apoptosis in human MDA-MB-231 cells assessed as upregulation of cleavage of PARP level at 0.5 to 2 uM incubated for 24 hrs by Western blot analysis; assay type: functional, cell-based; conditions: dose 0.5-2 µM
BT-549 [17] = test: Induction of apoptosis in human BT-549 cells assessed as upregulation of cleavage of PARP level at 0.5 to 2 uM incubated for 24 hrs by Western blot analysis; assay type: functional, cell-based; conditions: dose 0.5-2 µM
BT-549 [18] = test: Antitumor activity against human BT-549 cells xenografted in female BALB/c mouse model assessed as reduction in tumor volume administered subcutaneously and measured every day; assay type: functional, cell-based; conditions: dose 5-20 mg/kg, route sc
MDA-MB-231 [19] = test: Antitumor activity against human MDA-MB-231 cells xenografted in female BALB/c mouse model assessed as reduction in tumor weight administered subcutaneously and measured every day; assay type: functional, cell-based; conditions: dose 5-20 mg/kg, route sc
BT-549 [20] = test: Antitumor activity against human BT-549 cells xenografted in female BALB/c mouse model assessed as reduction in tumor weight administered subcutaneously and measured every day; assay type: functional, cell-based; conditions: dose 5-20 mg/kg, route sc
MDA-MB-231 [21] = test: Antitumor activity against human MDA-MB-231 cells xenografted in female BALB/c mouse model assessed as reduction of proliferation rate of tumor at 5 to 20 mg/kg administered subcutaneously and measured every day; assay type: functional, organism-based; conditions: dose 5-20 mg/kg, route sc
[22] = Toxicity in female BALB/c mouse xenografted with human MDA-MB-231 cells assessed as effect on body weight at 5 to 20 mg/kg, sc and measured daily; assay type: organism-based; conditions: in vivo, dose 5-20 mg/kg
[23] = Toxicity in female BALB/c mouse xenografted with human BT-549 cells assessed as effect on pathological changes in liver at 5 to 20 mg/kg, sc by H and E staining based analysis; assay type: organism-based; conditions: in vivo, dose 5-20 mg/kg
[24] = Toxicity in female BALB/c mouse xenografted with human MDA-MB-231 cells assessed as effect on pathological changes in spleen at 5 to 20 mg/kg, sc by H and E staining based analysis; assay type: organism-based; conditions: in vivo, dose 5-20 mg/kg
MDA-MB-231 [25] = test: Antiproliferative activity against human MDA-MB-231 cells xenografted in female BALB/c mouse model assessed as increase in E-cadherin level at 5 to 20 mg/kg administered subcutaneously by immunohistochemical staining based microscopic analysis; assay type: functional, organism-based; conditions: dose 5-20 mg/kg, route sc
MDA-MB-231 [26] = test: Antiproliferative activity against human MDA-MB-231 cells xenografted in female BALB/c mouse model assessed as fold change in inhibition of PKM2 expression at 10 mg/kg administered subcutaneously incubated for 24 hrs by Western blot analysis (reference value: 1.00%); assay type: functional; conditions: route sc
BT-549 [27] = test: Antiproliferative activity against human BT-549 cells xenografted in female BALB/c mouse model assessed as fold change in inhibition of PKM2 expression at 5 mg/kg administered subcutaneously incubated for 24 hrs by Western blot analysis (reference value: 1.05%); assay type: functional; conditions: route sc
MDA-MB-231 [28] = test: Antiproliferative activity against human MDA-MB-231 cells xenografted in female BALB/c mouse model assessed as fold change in downregulation of MMP-2 protein level at 20 mg/kg administered subcutaneously incubated for 24 hrs by Western blot analysis (reference value: 1.00%); assay type: functional; conditions: route sc
MDA-MB-231 [29] = test: Antiproliferative activity against human MDA-MB-231 cells xenografted in female BALB/c mouse model assessed as fold change in upregulation of BIP protein level at 10 mg/kg administered subcutaneously incubated for 24 hrs by Western blot analysis (reference value: 1.00%); assay type: functional; conditions: route sc
MDA-MB-231 [30] = test: Antiproliferative activity against human MDA-MB-231 cells xenografted in female BALB/c mouse model assessed as fold change in upregulation of BIP protein level at 20 mg/kg administered subcutaneously incubated for 24 hrs by Western blot analysis (reference value: 1.00%); assay type: functional; conditions: route sc
BT-549 [31] = test: Antiproliferative activity against human BT-549 cells xenografted in female BALB/c mouse model assessed as fold change in upregulation of BAX protein level at 10 mg/kg administered subcutaneously incubated for 24 hrs by Western blot analysis (reference value: 1.00%); assay type: functional; conditions: route sc
[32] = Toxicity in female BALB/c mouse assessed as change in liver administered subcutaneously measured upto 16 days; assay type: tissue-based; conditions: in vivo, sc, 384 h, time < 16 day
[33] = Toxicity in female BALB/c mouse assessed as change in spleen administered subcutaneously measured upto 16 days; assay type: tissue-based; conditions: in vivo, sc, 384 h, time < 16 day

## CC(C)=CCC/C(C)=C/[C@H]1OC(=O)CC12C[C@H](OC(=O)Cc1ccc(NC(=O)/C=C/c3ccccc3)cc1)C=CC2=O (stereo partly drawn)
[1]
  IC50 at 48 h: 16 µM
[2]
  selectivity ratio at 48 h: 72.7
MDA-MB-231 [3]
  inhibition: Dose-Dependent Effect
BT-549 [4]
  inhibition: Active
MDA-MB-231 [5]
  inhibition: Active
BT-549 [6]
  inhibition: Dose-Dependent Effect
BT-549 [7]
  inhibition: Active
BT-549 [8]
  inhibition: Active
BT-549 [9]
  Activity: Active
BT-549 [10]
  Activity: Dose-Dependent Effect
MDA-MB-231 [11]
  Activity: Active
BT-549 [12]
  Activity: 5.44%
BT-549 [13]
  Activity: 50.1%
MDA-MB-231 [14]
  viability at 0.5 µM: 70.1%
MDA-MB-231 [15]
  Activity: Active
MDA-MB-231 [16]
  Activity: Active
BT-549 [17]
  Activity: Active
BT-549 [18]
  Activity: Dose-Dependent Effect
MDA-MB-231 [19]
  Activity: Dose-Dependent Effect
BT-549 [20]
  Activity: Dose-Dependent Effect
MDA-MB-231 [21]
  Activity: Active
[22]
  Activity: Non-Toxic
[23]
  Activity: Non-Toxic
[24]
  Activity: Non-Toxic
MDA-MB-231 [25]
  Activity: Active
MDA-MB-231 [26]
  fold change (FC): 0.62
BT-549 [27]
  fold change (FC): 0.97
MDA-MB-231 [28]
  fold change (FC): 0.26
MDA-MB-231 [29]
  fold change (FC): 2.1
MDA-MB-231 [30]
  fold change (FC): 2.42
BT-549 [31]
  fold change (FC): 1.61
[32]
  Activity: Non-Toxic
[33]
  Activity: Non-Toxic

— ChEMBL document CHEMBL6071165, “Design, synthesis and biological evaluation of plant-derived miliusol derivatives achieve TNBC profound regression in vivo” (Eur J Med Chem, 2024)
